Experimental data: patent US20240270762A1, “PENICILLIN-BINDING PROTEIN INHIBITORS” (priority 2021, published 2024)
pEC50: −log10 of the molar value. Values after ≈ are worked out from the molar mass of the structure shown.

Assays:
N. gonorrhoeae WHO K = test: Liquid broth MIC in Fastidious broth; details: Neisseria gonorrhoeae, read-out: Minimum Inhibitory Concentration (MIC), N. gonorrhoeae WHO K
[1] = molecular target: T1, PBP2 from Neisseria gonorrhoeae (FA19) (Neisseria gonorrhoeae, UniProt P08149); test: Bocillin-FL fluorescence polarization competition binding, N. gonorrhoeae PBP2; details: fluorescence polarization competition binding assay using Bocillin-FL, read-out: N. gonorrhoeae PBP2 Potency
T1 construct: made in house
From the text: To determine the ability of boronic acid-based test PBP inhibitors to bind Penicillin Binding Proteins (PBPs), Bocillin-FL (fluorescently-labeled penicillin V; ThermoFisher Scientific) was used in a fluorescence polarization (FP) competition binding assay to assess inhibitor binding to PBP3 from Escherichia coli (K-12), PBP3 from Pseudomonas aeruginosa (PAO1), PBP1a and PBP3 from Acinetobacter baumannii (ATCC 19606), and PBP2 from Neisseria gonorrhoeae (FA19). PBPs were cloned and purified as described previously (E. coli PBP3, King, D. T, et al., ACS Infectious Diseases 2015, 1, 175-184; P. aeruginosa PBP3, Han et. al., PNAS 2010, 107 (51), 22002-22007; A. baumannii PBPs, Penwell et. al., Antimicrob. Agents Chemother. 2015, 59 (3), 1680-1689; N. gonorrhoeae PBP2, Singh et. al., J. Biol. Chem. 2019, 294 (38), 14020-14032). To establish assay conditions for competition binding, enzyme titration/saturation binding experiments were initially performed. Bocillin-FL was prepared at 0.2 μM in a buffer comprised of 50 mM Hepes (pH 8.0), 300 mM NaCl and 10% (v/v) glycerol for reactions with E. coli, P. aeruginosa and N. gonorrhoeae PBPs, and 25 mM Tris (pH 8.0), 200 mM NaCl, 10% (v/v) glycerol and 0.005% (v/v) Tween 20 for reactions with A. baumannii PBPs. Saturation binding was performed by mixing 40 μl of PBP solutions ranging in concentrations from 0-24 μM with 40 μl of the 0.2 μM Bocillin-FL solution, in individual wells of a black 384-well microplate. FP was measured immediately upon mixing (Excitation, 490 nm; Emission, 520 nm; g-factor, 0.96), using a Cytation3 (BioTek) microplate reader and measured continuously for up to 120 minutes. […] The competition binding assay (80 μl final volume) was validated using beta-lactams and PBPs at final concentrations of: 1.5 μM for E. coli PBP3; 0.75 μM for P. aeruginosa PBP3; 1 μM for A. baumannii PBP1a; 0.2 μM for A. baumannii PBP3; and 0.25 μM for N. gonorrhoeae PBP2. Bocillin-FL was at 0.1 μM (0.05 μM with A. baumannii PBP1a) and beta-lactam concentrations ranged from 0-1,000 μM. E. coli PBP3 was incubated with increasing concentrations of ampicillin in a black 384-well microplate (Corning) for 30 minutes. P. aeruginosa PBP3 was incubated for 15 minutes with aztreonam, whereas A. baumannii PBP1a and PBP3 were incubated for 15 minutes with meropenem, and then Bocillin-FL was added followed immediately by the FP measurement for up to 60 minutes. […] The beta-lactam potency was reported as the concentration of beta-lactam required to reduce the amount of PBP bound-Bocillin-FL by 50% (EC50). […] Binding assays for boronic acid PBP inhibitors were performed in an identical fashion for the respective PBPs.

E. coli 901C = test: microbe, parasite or virus in culture; type: cell-based; details: Escherichia coli, read-out: MIC E. coli 901C

T1 sequence (P08149 whole entry): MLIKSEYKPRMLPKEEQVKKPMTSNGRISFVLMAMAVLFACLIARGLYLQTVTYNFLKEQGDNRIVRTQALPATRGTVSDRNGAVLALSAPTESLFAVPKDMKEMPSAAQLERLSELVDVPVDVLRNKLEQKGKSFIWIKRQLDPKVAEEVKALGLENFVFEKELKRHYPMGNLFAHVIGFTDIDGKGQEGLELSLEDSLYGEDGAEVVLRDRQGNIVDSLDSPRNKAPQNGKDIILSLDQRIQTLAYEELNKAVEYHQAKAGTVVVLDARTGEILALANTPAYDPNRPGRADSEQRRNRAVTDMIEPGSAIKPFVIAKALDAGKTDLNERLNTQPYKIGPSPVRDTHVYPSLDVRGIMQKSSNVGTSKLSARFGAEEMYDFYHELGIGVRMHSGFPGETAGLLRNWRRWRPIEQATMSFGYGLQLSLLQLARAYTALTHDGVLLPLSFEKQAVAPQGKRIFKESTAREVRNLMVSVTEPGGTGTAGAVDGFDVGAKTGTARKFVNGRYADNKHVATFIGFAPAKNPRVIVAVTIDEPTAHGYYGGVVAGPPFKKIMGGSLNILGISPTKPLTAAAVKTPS

Row | Structure (SMILES) | MIC (N. gonorrhoeae WHO K) | pEC50 [1] | MIC (E. coli 901C)
1 | Nc1nc(C(=O)N[C@@H](C(=O)N[C@H]2Cc3cccc(C(=O)O)c3OB2O)c2ccc(P(=O)(O)O)cc2)cs1 (racemic) [Example 51, (R)-3-((S)-2-(2-aminothiazole-4-carboxamido)-2-(4-phosphonophenyl)acetamido)-2-hydroxy-3,4-dihydro-2H-benzo[e][1,2]oxaborinine-8-carboxylic acid and (R)-3-((R)-2-(2-aminothiazole-4-carboxamido)-2-(4-phosphonophenyl)acetamido)-2-hydroxy-3,4-dihydro-2H-benzo[e][1,2]oxaborinine-8-carboxylic acid] | 1 to 2 µg/mL (≈ 1.83 to 3.66 µM) | > 5.00 | < 1 µg/mL
2 | CCN1CCN(C(=O)N[C@@H](C(=O)N[C@H]2Cc3cccc(C(=O)O)c3OB2O)c2ccc(P(=O)(O)O)c(F)c2)C(=O)C1=O (single isomer, unassigned) [Example 7] | < 1 µg/mL | > 5.00 | < 1 µg/mL
3 | CCN1CCN(C(=O)N[C@@H](C(=O)N[C@H]2Cc3ccc(F)c(C(=O)O)c3OB2O)c2ccc(P(=O)(O)O)cc2)C(=O)C1=O (single isomer, unassigned) [Example 10] | < 1 µg/mL | > 5.00 | < 1 µg/mL
4 | CS(=O)(=O)N1CCN(C(=O)N[C@@H](C(=O)N[C@H]2Cc3cccc(C(=O)O)c3OB2O)c2ccc(P(=O)(O)O)c(F)c2F)C1=O (single isomer, unassigned) [Example 13] | < 1 µg/mL | > 5.00 | < 1 µg/mL
5 | CS(=O)(=O)N1CCN(C(=O)N[C@@H](C(=O)N[C@H]2Cc3cccc(C(=O)O)c3OB2O)c2ccc(P(=O)(O)O)c(F)c2)C1=O (single isomer, unassigned) [Example 15] | < 1 µg/mL | > 5.00 | < 1 µg/mL
6 | CS(=O)(=O)N1CCN(C(=O)N[C@@H](C(=O)N[C@H]2Cc3cccc(C(=O)O)c3OB2O)c2cc(F)c(P(=O)(O)O)c(F)c2)C1=O (single isomer, unassigned) [Example 18] | < 1 µg/mL | > 5.00 | < 1 µg/mL
7 | CS(=O)(=O)N1CCN(C(=O)N[C@@H](C(=O)N[C@H]2Cc3ccc(F)c(C(=O)O)c3OB2O)c2ccc(P(=O)(O)O)c(F)c2)C1=O (single isomer, unassigned) [Example 19] | < 1 µg/mL | > 5.00 | < 1 µg/mL
8 | CCN1CCN(C(=O)N[C@@H](C(=O)N[C@H]2Cc3cccc(C(=O)O)c3OB2O)c2ccc(P(C)(=O)O)cc2)C(=O)C1=O (single isomer, unassigned) [Example 47] | 4 to 8 µg/mL (≈ 6.82 to 13.6 µM) | > 5.00 | < 1 µg/mL
9 | N[C@@H](C(=O)N[C@H]1Cc2cccc(C(=O)O)c2OB1O)c1ccc(P(=O)(O)O)cc1 (single isomer, unassigned) [Example 171] | > 64 µg/mL | 4.30 to 5.00 | > 128 µg/mL
10 | O=C(O)c1cccc2c1OB(O)[C@@H](NC(=O)[C@@H](NC(=O)c1ccn[nH]c1=O)c1ccc(P(=O)(O)O)cc1)C2 (single isomer, unassigned) [Example 177] | 4 to 8 µg/mL (≈ 7.38 to 14.8 µM) | > 5.00 | 2 to 4 µg/mL (≈ 3.69 to 7.38 µM)
11 | O=C(O)c1cccc2c1OB(O)[C@@H](NC(=O)[C@H](NC(=O)c1ccn[nH]c1=O)c1ccc(P(=O)(O)O)cc1)C2 (single isomer, unassigned) [Example 178] | 1 to 2 µg/mL (≈ 1.84 to 3.69 µM) | > 5.00 | < 1 µg/mL
12 | Cn1cccc(C(=O)N[C@@H](C(=O)N[C@H]2Cc3cccc(C(=O)O)c3OB2O)c2ccc(P(=O)(O)O)cc2)c1=O (single isomer, unassigned) [Example 182] | 4 to 8 µg/mL (≈ 7.2 to 14.4 µM) | > 5.00 | 2 to 4 µg/mL (≈ 3.6 to 7.2 µM)
13 | O=C(N[C@H](C(=O)N[C@H]1Cc2cccc(C(=O)O)c2OB1O)c1ccc(P(=O)(O)O)cc1)c1ccc(C(F)(F)F)cn1 (single isomer, unassigned) [Example 192] | 4 to 8 µg/mL (≈ 6.74 to 13.5 µM) | > 5.00 | < 1 µg/mL
14 | O=C(N[C@@H](C(=O)N[C@H]1Cc2cccc(C(=O)O)c2OB1O)c1ccc(P(=O)(O)O)cc1)c1ccc(C(F)(F)F)cn1 (single isomer, unassigned) [Example 193] | 1 to 2 µg/mL (≈ 1.69 to 3.37 µM) | > 5.00 | < 1 µg/mL
15 | O=C(O)c1c(F)ccc2c1OB(O)[C@@H](NC(=O)C(NC(=O)N1CCN(Cc3ccc(O)c(O)c3Cl)C(=O)C1=O)c1ccc(P(=O)(O)O)cc1)C2 (stereo partly drawn) [Example 8, (3R)-3-(2-(4-(2-chloro-3,4-dihydroxybenzyl)-2,3-dioxopiperazine-1-carboxamido)-2-(4-phosphonophenyl)acetamido)-7-fluoro-2-hydroxy-3,4-dihydro-2H-benzo[e][1,2]oxaborinine-8-carboxylic acid] | 1 to 2 µg/mL (≈ 1.36 to 2.72 µM) | > 5.00 | < 1 µg/mL
16 | CS(=O)(=O)N1CCN(C(=O)NC(C(=O)N[C@H]2Cc3cccc(C(=O)O)c3OB2O)c2ccc(P(=O)(O)O)c(Cl)c2)C1=O (stereo partly drawn) [Example 11, (3R)-3-(2-(3-chloro-4-phosphonophenyl)-2-(3-(methylsulfonyl)-2-oxoimidazolidine-1-carboxamido)acetamido)-2-hydroxy-3,4-dihydro-2H-benzo[e][1,2]oxaborinine-8-carboxylic acid] | < 1 µg/mL | > 5.00 | < 1 µg/mL
17 | O=C(O)c1c(F)ccc2c1OB(O)[C@@H](NC(=O)C(NC(=O)N1CCN(Cc3ccc(O)c(O)c3Cl)C(=O)C1=O)c1ccc(P(=O)(O)O)c(F)c1)C2 (stereo partly drawn) [Example 23, (3R)-3-(2-(4-(2-chloro-3,4-dihydroxybenzyl)-2,3-dioxopiperazine-1-carboxamido)-2-(3-fluoro-4-phosphonophenyl)acetamido)-7-fluoro-2-hydroxy-3,4-dihydro-2H-benzo[e][1,2]oxaborinine-8-carboxylic acid] | < 1 µg/mL | > 5.00 | –
18 | O=C(O)c1cccc2c1OB(O)[C@@H](NC(=O)C(NC(=O)N1CCN(Cc3ccc(O)c(O)c3Cl)C(=O)C1=O)c1ccc(P(=O)(O)O)cc1)C2 (stereo partly drawn) [Example 24, (3R)-3-(2-(4-(2-chloro-3,4-dihydroxybenzyl)-2,3-dioxopiperazine-1-carboxamido)-2-(4-phosphonophenyl)acetamido)-2-hydroxy-3,4-dihydro-2H-benzo[e][1,2]oxaborinine-8-carboxylic acid] | 4 to 8 µg/mL (≈ 5.58 to 11.2 µM) | > 5.00 | –
19 | O=C(O)c1c(F)ccc2c1OB(O)[C@@H](NC(=O)C(NC(=O)N1CCN(Cc3cc(F)c(O)c(O)c3Cl)C(=O)C1=O)c1ccc(P(=O)(O)O)cc1)C2 (stereo partly drawn) [Example 45, (3R)-3-(2-(4-(2-chloro-5-fluoro-3,4-dihydroxybenzyl)-2,3-dioxopiperazine-1-carboxamido)-2-(4-phosphonophenyl)acetamido)-7-fluoro-2-hydroxy-3,4-dihydro-2H-benzo[e][1,2]oxaborinine-8-carboxylic acid] | 1 to 2 µg/mL (≈ 1.33 to 2.66 µM) | > 5.00 | –
20 | O=C(O)c1c(F)ccc2c1OB(O)[C@@H](NC(=O)C(NC(=O)N1CCN(Cc3ccc(O)c(O)c3Cl)C1=O)c1ccc(P(=O)(O)O)cc1)C2 (stereo partly drawn) [Example 46, (3R)-3-(2-(3-(2-chloro-3,4-dihydroxybenzyl)-2-oxoimidazolidine-1-carboxamido)-2-(4-phosphonophenyl)acetamido)-7-fluoro-2-hydroxy-3,4-dihydro-2H-benzo[e][1,2]oxaborinine-8-carboxylic acid] | 1 to 2 µg/mL (≈ 1.41 to 2.83 µM) | > 5.00 | –
